{"source": "patent US5703130A", "about": "“Chalcone retinoids and methods of use of same” (priority 1996, dated 1997)", "key": {"[1]": {"conditions": "Preuss-Ueberschar et al., Drug Res. 34:1305-1313 (1984); cited from earlier work"}, "melanoma cell": {"tested_on": "melanoma cell", "conditions": "Jing et al. (1992); cited from earlier work"}, "[2]": {"tested_on": "Human promyelocytic leukemia HL-60 cells", "assay": "Cell differentiation of HL-60 cells by nitroblue tetrazolium (NBT) reduction", "format": "cell-based", "conditions": "50% differentiation or effective concentration, read-out: NBT ED50", "procedure": "Human promyelocytic leukemia HL-60 cells were cultured in RPMI-1640 medium supplemented by 10% heat-inactivated calf serum and 100 U/ml of penicillin plus 100 μg/ml of streptomycin. The flasks containing cells and medium were incubated in an incubator with 5% CO2 at 37° C. Log phase cells were seeded into the medium at a concentration of 1.2×10^5to 1.4×10^5 cells per ml and cultured in flasks containing 5 ml of medium. Each group consisted of three flasks. Different concentrations of chalcone-retinoids were added. At intervals following the addition of chalcone-retinoids to the cultures, a small portion of cells was removed and live cells were counted under a light microscope using a dye-exclusionmethod with trypan blue. Cell differentiation was judged in terms of morphology and nitroblue tetrazolium (NBT) reduction.\nFor a determination of NBT reducing activity, a portion of the chalcone-retinoid-treated cells was removed at intervals following treatment and centrifuged. After centrifugation, 0.5 ml of 0.1% NBT (containing 100 ng TPA) was added to each tube. The contents of the test tubes were then incubated for 1 hour at 37° C. Cell smears were prepared from the cell sediment and stained using the Wright-Giemsa technique. For each smear prepared, 200 cells were isolated for examination under a light microscope with an oil immersion lens. Cells stained with blue-black granules were considered NBT-positive cells. The 50% differentiation or effective concentration (ED50 or EC50) is shown in terms of molar (M) concentration of the […] tested."}, "cancer cells": {"tested_on": "cancer cells", "assay": "MTT assay for inhibitory effect on cancer cells (monolayer culture)", "format": "cell-based", "conditions": "120 h, 5 day culture, 1200 tumor cells per well, cell line not named, read-out: MTT ED50", "procedure": "For a monolayer culture to test for the inhibitory effect of chalcone retinoids on cancer cells, 0.5 ml of trypsin solution (0.3 gm/ml) was added to the flasks for digestion. Microtiter plates (96 well) were used for the cell culture and 200 μl of cell suspension (1200 tumor cells) were placed in each well and incubated at 37° C. for 24 hours. Following the addition of the test compound, the control and treated flasks were placed in a CO2 incubator for 5 day culture. For the MTT assay, 200 μl of MTT solution (5 mg in 10 ml of phosphate buffer) plus the medium were added and incubated for another 4 hours. Following incubation, the supernatant was discarded and 200 μl of DMSO was added to each well. With a mild agitation the OD values were determined by the MR 700 Elisa at 570 nm (reference wavelength was 450 nm). The ED50 of the compound and tumor cell survival rate [formula] as percent inhibition were calculated."}, "[3]": {"tested_on": "human acute myeloid leukemia (AML), neuroblastoma, teratocarcinoma, melanoma, and rat rhabdomyosarcoma cells", "conditions": "Smith et al., J. Clin. Oncol. 10 (5):839-864 (1992); cited from earlier work"}}, "note": "pEC50, pIC50: −log10 of the molar value.", "data": [{"molecule": "O=c1ccc2ccccc2o1", "note": "[coumarin]", "values": [{"measurement": "teratogenicity", "setting": "[1]", "value": "not teratogenic"}]}, {"molecule": "O=c1c(-c2ccc(O)cc2)coc2cc(O)ccc12", "note": "[diadzein]", "values": [{"measurement": "inhibition of melanoma cell growth", "setting": "melanoma cell", "value": "inhibits melanoma cell growth"}]}, {"molecule": "COc1c(C(C)(C)C)cc(C(=O)C=Cc2ccc(C(=O)Oc3ccc(NC(C)=O)cc3)cc2)cc1C(C)(C)C", "note": "[I-N, 1-(3,5-di-t-butyl-4-methoxyphenyl)-3-[4-(4-acetaminophenoxycarbonyl)-phenyl]-2-propen-1-one]", "values": [{"measurement": "pEC50", "setting": "[2]", "value": "< 6.00"}, {"measurement": "pIC50", "setting": "cancer cells", "value": 5.70}]}, {"molecule": "CC1=C(/C=C/C(C)=C/C=C/C(C)=C/C(=O)O)C(C)(C)CCC1", "note": "[all-trans-retinoic acid (RA), all-trans-retinoic acid]", "values": [{"measurement": "induces cell differentiation", "setting": "[3]", "value": "induces cell differentiation"}]}, {"molecule": "COc1c(C(C)(C)C)cc(C(=O)Nc2ccc(C(=O)Oc3ccc(NC(C)=O)cc3)cc2)cc1C(C)(C)C", "note": "[I-J, N-4-[4-(acetaminophenoxycarbonyl)phenyl]-3,5-di-t-butyl-4-methoxybenzamide]", "values": [{"measurement": "pEC50", "setting": "[2]", "value": 5.92}, {"measurement": "pIC50", "setting": "cancer cells", "value": 6.04}]}, {"molecule": "CC(=O)Nc1ccc(OC(=O)c2ccc(OC(=O)c3cc(C(C)(C)C)c(O)c(C(C)(C)C)c3)cc2)cc1", "note": "[I-Q, 4'-[(4-acetamino)phenoxycarbonylphenyl] 4-hydroxy-3,5-di-t-butyl-benzoate]", "values": [{"measurement": "pEC50", "setting": "[2]", "value": 5.10}, {"measurement": "pIC50", "setting": "cancer cells", "value": 5.22}]}, {"molecule": "CC(=O)Nc1ccc(OC(=O)c2ccc(NC(=O)c3cc(C(C)(C)C)c(O)c(C(C)(C)C)c3)cc2)cc1", "note": "[I-B, N-4-[4-(acetaminophenoxycarbonyl)phenyl]-3,5-di-t-butyl-4-hydroxybenzamide]", "values": [{"measurement": "pEC50", "setting": "[2]", "value": "< 5.00"}, {"measurement": "pIC50", "setting": "cancer cells", "value": 4.96}]}, {"molecule": "CCOC(=O)c1ccc(NC(=O)c2ccc(OC(=O)c3cc(C(C)(C)C)c(O)c(C(C)(C)C)c3)cc2)cc1", "note": "[I-R, 4-(4-ethoxycarbonyl-phenylaminocarbonyl)phenyl 3,5-di-t-butyl-4-hydroxybenzoate]", "values": [{"measurement": "pEC50", "setting": "[2]", "value": "< 5.00"}, {"measurement": "pIC50", "setting": "cancer cells", "value": "< 5.00"}]}, {"molecule": "CC(C)(C)c1cc(C(=O)Oc2ccc(C(=O)Nc3ccc(C(=O)O)cc3)cc2)cc(C(C)(C)C)c1O", "note": "[I-S, 4-(4-carboxy-phenylaminocarbonyl)phenyl 3,5-di-t-butyl-4-hydroxybenzoate]", "values": [{"measurement": "pEC50", "setting": "[2]", "value": "< 5.00"}, {"measurement": "pIC50", "setting": "cancer cells", "value": 5.80}]}, {"molecule": "CC(C)(C)c1cc(C(=O)Nc2ccc(C(=O)Nc3ccc(O)cc3)cc2)cc(C(C)(C)C)c1O", "note": "[I-A, N-4-[4-(hydroxyphenylaminocarbonyl)phenyl]-3,5-di-t-butyl-4-hydroxybenzamide]", "values": [{"measurement": "pEC50", "setting": "[2]", "value": "< 6.00"}, {"measurement": "pIC50", "setting": "cancer cells", "value": 5.40}]}]}
